Patent US8623902B2, “Microbiocides” (Syngenta Crop Protection, LLC, priority 2008, dated 2014)

How the values were obtained:
Botrytis cinerea = assay: Action against Botrytis cinerea - fungal growth assay; assay type: cell-based; settings: 0.002% active ingredient, PDB broth, 24° C., photometric after 3-4 days
Protocol: (§1) Action Against Botrytis cinerea—Fungal Growth Assay Conidia of the fungus from cryogenic storage are directly mixed into nutrient broth (PDB potato dextrose broth). After placing a (DMSO) solution of the test compounds (0.002% active ingredient) into a microtiter plate (96-well format) the nutrient broth containing the fungal spores is added. The test plates are incubated at 24° C. and the inhibition of growth is measured photometrically after 3-4 days. The activity of a compound is expressed as fungal growth inhibition (0=no growth inhibition, ratings of 80% to 99% mean good to very good inhibition, 100%=complete inhibition).

[1] = tested on: Monographella nivalis (anamorph: Fusarium nivale, Microdochium nivale; snow mould); assay: Action against Monographella nivalis - fungal growth assay; assay type: cell-based; settings: 0.002% active ingredient, PDB broth, 24° C., photometric after 72 hrs
Protocol: as §1, with “Monographella nivalis (Anamorph: Fusarium nivale, Microdochium nivale; Snow Mould)—Fungal” for “Botrytis cinerea—Fungal”, “DMSO-solution” for “(DMSO) solution”, “72 hrs” for “3-4 days. The activity of a compound is expressed as fungal growth inhibition”

[2] = tested on: Leptosphaeria nodorum (Septoria nodorum); assay: Action against Leptosphaeria nodorum (Septoria nodorum; glume blotch) on wheat; assay type: in vivo; settings: Parastagonospora nodorum, foliar, 96 h; wheat leaf segments sprayed with 0.02% active ingredient, assessed 4 days after inoculation; read-out: preventive fungicidal activity (inhibition)
Protocol: (§2) Action Against Leptosphaeria nodorum (Septoria nodorum; Glume Blotch) on Wheat Wheat leaf segments are placed on agar in multiwell plates (24-well format) and sprayed with test solutions (0.02% active ingredient). After drying, the leaf disks are inoculated with a spore suspension of the fungus. After appropriate incubation the activity of a compound is assessed 4 days after inoculation as preventive fungicidal activity.

Puccinia recondita [3] = assay: Protective action against Puccinia recondita (brown rust) on wheat; assay type: in vivo; settings: foliar, 192 h, wheat leaf segments sprayed with 0.02% active ingredient, assessed 8 days after inoculation, read-out: preventive fungicidal activity (inhibition)
Protocol: as §2, with “Protective Action” for “Action”, “Against Puccinia recondita (Brown Rust)” for “Against Leptosphaeria nodorum (Septoria nodorum; Glume Blotch)”, “assessed 8” for “assessed 4”

[4] = tested on: Mycosphaerella arachidis (early leaf spot of groundnut; Cercospora arachidicola [anamorph]); assay: Action against Mycosphaerella arachidis - fungal growth assay; assay type: cell-based; settings: 0.002% active ingredient, PDB broth, 24° C., photometric after 6-7 days
Protocol: as §1, with “Mycosphaerella arachidis (Early Leaf Spot of Groundnut; Cercospora arachidicola [anamorph])—Fungal” for “Botrytis cinerea—Fungal”, “6-7” for “3-4”

Pyrenophora teres = assay: Action against Pyrenophora teres (net blotch) on barley; assay type: in vivo; settings: foliar, 96 h, barley leaf segments sprayed with 0.02% active ingredient, assessed 4 days after inoculation, read-out: preventive fungicidal activity (inhibition)
Protocol: as §2, with “Pyrenophora teres (Net” for “Leptosphaeria nodorum (Septoria nodorum; Glume”, “Barley Barley” for “Wheat Wheat”

[5] = tested on: Erysiphe graminis f.sp. tritici; assay: Action against Erysiphe graminis f.sp. tritici (wheat powdery mildew), wheat leaf segments; assay type: in vivo; settings: Blumeria graminis, foliar, 168 h; wheat leaf segments sprayed with 0.02% active ingredient, assessed 7 days after inoculation; read-out: preventive fungicidal activity (inhibition)
Protocol: as §2, with “Against Erysiphe graminis f.sp. tritici (Wheat Powdery Mildew)” for “Against Leptosphaeria nodorum (Septoria nodorum; Glume Blotch) on Wheat”, “assessed 7” for “assessed 4”

Puccinia recondita [6] = assay: Curative action against Puccinia recondita (brown rust) on wheat; assay type: in vivo; settings: foliar, wheat leaf segments sprayed with 0.02% active ingredient one day after inoculation, assessed 8 days after inoculation, read-out: curative fungicidal activity (inhibition)
Protocol: Curative Action Against Puccinia recondita (Brown Rust) on Wheat Wheat leaf segments are placed on agar in multiwell plates (24-well format) and inoculated with a spore suspension of the fungus. One day after inoculation the leaf segments are sprayed with test solutions (0.02% active ingredient). After appropriate incubation the activity of a compound is assessed 8 days after inoculation as curative fungicidal activity.

Septoria tritici = assay: Action against Septoria tritici - fungal growth assay; assay type: cell-based; settings: Zymoseptoria tritici; 0.002% active ingredient, PDB broth, 24° C., photometric after 72 hrs
Protocol: as §1, with “Septoria tritici—Fungal” for “Botrytis cinerea—Fungal”, “determined” for “measured”, “72 hrs.” for “3-4 days.”

Rhizoctonia solani = assay: Action against Rhizoctonia solani - fungal growth assay; assay type: cell-based; settings: 0.002% active ingredient, PDB broth, 24° C., photometric after 3-4 days
Protocol: as §1, with “Rhizoctonia solani—Fungal” for “Botrytis cinerea—Fungal”, “Mycelial fragments of a newly grown liquid culture” for “Conidia”, “fungus” for “fungus from cryogenic storage”

| SMILES | inhibition at 0.002 % strength (Botrytis cinerea) | inhibition at 0.002 % strength [1] | inhibition at 0.02 % strength [2] | inhibition at 0.02 % strength (Puccinia recondita [3]) | inhibition at 0.002 % strength [4] | inhibition at 0.02 % strength (Pyrenophora teres) | inhibition at 0.02 % strength [5] | inhibition at 0.02 % strength (Puccinia recondita [6]) | inhibition at 0.002 % strength (Septoria tritici) | inhibition at 0.002 % strength (Rhizoctonia solani) | melting point |
| --- | --- | --- | --- | --- | --- | --- | --- | --- | --- | --- | --- |
| Cn1cc(C(=O)N2CCC[C@H]2COc2c(Cl)cc(Cl)cc2Cl)c(C(F)F)n1 [Compound 1.006] | ≥ 80% | ≥ 50% | ≥ 50% | ≥ 80% | ≥ 80% | ≥ 80% | ≥ 80% | ≥ 80% | ≥ 80% | ≥ 50% |  |
| Cn1cc(C(=O)N2CCC[C@H]2C(F)c2ccc(Cl)cc2)c(C(F)F)n1 (stereo partly drawn) [Compound 1.215, {(S)-2-[(4-chlorophenyl)-fluoro-methyl]-pyrrolidin-1-yl}-(3-difluoromethyl-1-methyl-1H-pyrazol-4-yl)-methanone] |  |  | ≥ 50% |  | ≥ 80% | ≥ 80% |  |  | ≥ 80% |  |  |
| Cn1cc(C(=O)N2CCCC2Cc2c(Cl)cccc2Cl)c(C(F)F)n1 (centres unmarked) [Compound 1.110, [2-(2,6-dichloro-benzyl)-pyrrolidin-1-yl]-(3-difluoromethyl-1-methyl-1H-pyrazol-4-yl)-methanone] |  |  |  |  | ≥ 80% | ≥ 80% | ≥ 50% |  | ≥ 80% |  |  |
| Cc1cccc(C)c1OC[C@@H]1CCCN1C(=O)c1cn(C)nc1C(F)F [Compound 1.068] | ≥ 80% |  | ≥ 50% | ≥ 80% | ≥ 80% | ≥ 80% | ≥ 80% | ≥ 80% | ≥ 80% | ≥ 50% | 137 to 140 °C |
| Cn1cc(C(=O)N2CCC[C@H]2C(=O)c2ccc(Cl)cc2)c(C(F)F)n1 [Compound 1.259, (4-chloro-phenyl)-[(S)-1-(3-difluoromethyl-1-methyl-1H-pyrazole-4-carbonyl)-pyrrolidin-2-yl]-methanone] |  |  |  |  |  | ≥ 50% |  |  |  |  |  |
| CO/N=C/c1cc(Cl)c(OC[C@@H]2CCCN2C(=O)c2cn(C)nc2C(F)F)c(Cl)c1 [Compound 1.021, 3,5-dichloro-4-[(S)-1-(3-difluoromethyl-1-methyl-1H-pyrazole-4-carbonyl)-pyrrolidin-2-ylmethoxy]-benzaldehyde O-methyl-oxime] | ≥ 80% |  |  | ≥ 80% | ≥ 80% | ≥ 80% |  |  | ≥ 80% | ≥ 50% |  |
